Measurements reported in paper PMC13439108, “An antibody–drug conjugate active against antibiotic-resistant Neisseria gonorrhoeae” (Proceedings of the National Academy of Sciences of the …, 2026).
≈ marks a conversion by molar mass, not a printed value. Where two headings read alike, the source gives them in different places. Where a SMILES comes first, the peptide text is derived from it. [ ]: non-standard residue; d: D form. The star is where a group is joined. d(aIle) = CC[C@H](C)[C@@H](N)C(=O)O; dDab = NCC[C@@H](N)C(=O)O; Octanoyl = CCCCCCCC(=O)*; Dab = NCC[C@H](N)C(=O)O; AEEA = NCCOCCOCC(=O)O

Experiments:
HK-2 cells [1] = assay: LDH release cytotoxicity; assay type: cell-based, human; conditions: n = 3; for LDH (EC50) 4 h: 2 × 10^4 cells/well, LDH release OD490, 4 h
Experimental: HK-2 cells (CRL-2190™, Americab Type Culutre Collection (ATCC)), a proximal renal tubule cell(7), and End1/E6E7 (CRL-2615™, ATCC) upper cervical epithelial cells(8) were cultured in Keratinocyte Serum Free Medium (Invitrogen, Life Technologies Ltd.) with human recombinant EGF (5 ng ml-1) and bovine pituitary extract (0.05 mg ml−1) at 37°C in 5% CO2. Cells were seeded in 96-well plates (Corning, Polystyrene) at a density of 2 × 10^4 cells/well 24 hr prior; Triton-X-100 (0.1%) and Digitonin (30 μg ml−1) were used as controls. Lactate dehydrogenase (LDH) release was measured using the Biovision kit; the OD490 was assessed in a SpectraMax M5 plate reader. […]

[2] = test system: N. gonorrhoeae G97687 (MDR isolate); conditions: G97687, MDR isolate resistant to ESCs and azithromycin, microdilution in FB, 24 hr, 37°C, 5% CO2
Experimental: (§1) Determination of Oct-TriA1 Minimum Inhibitory Concentration (MIC)
(§2) N. gonorrhoeae was resuspended in PBS to an ODA600 1.0, and ̴5 × 10^4 CFU added to wells of a microdilution plate containing dilutions of antimicrobials in FB. Plates were incubated for 24 hr at […]
(§3) 37°C, in 5% CO2 then 10 μl aliquots plated onto GCB agar. The MIC was defined as the lowest concentration of an antimicrobial that prevented bacterial growth. […]
(§4) Peptide concentration in ADC preparations
(§5) Peptide concentrations for ADCs were calculated from the antibody concentration, the drug-to-antibody ratio (DAR), and the peptide molecular weight using the following formula:
(§6) Conc. peptide (µg/mL) = Conc. ADC (µg/mL) × DAR x MWpeptide (Da) […]
(§7) Where Conc. ADC is the ADC/ mAb concentration, MWADC is the mAb molecular weight (150 kDa), MWpeptide is the peptide molecular weight and DAR is the average number of peptides per conjugate.
(§8) This formula was used to convert ADC concentrations to peptide concentrations for all assays. […]

human erythrocytes = assay: Hemolysis of human erythrocytes; assay type: cell-based; conditions: concentration of peptide or ADC that lyses 50% of erythrocytes; washed human blood 0.5%, 37°C, 1 hr, OD415; melittin 2.5 µM = 100%, PBS = 0%; n = 3
Experimental: For hemolysis, whole human blood (1 ml; K2EDTA; Cambridge Bioscience) was washed in PBS then 0.5% added to an equal volume of peptides or ADCs in 96-well V-bottomed polypropylene plates and incubated at 37°C for 1 hr. Cells were pelleted at 1,000 × g for 10 min and the absorbance at OD415 measured. Positive (melittin, 2.5 µM, Merck Life Science) and negative (PBS) controls were normalised as 100 and 0% hemolysis, respectively. […]

HK-2 cells [3] = assay: MTT cell viability; assay type: cell-based, human; conditions: n = 3; for MTT (EC50) 4 h: MTT reduction OD570, 4 h
Experimental: HK-2 cells (CRL-2190™, Americab Type Culutre Collection (ATCC)), a proximal renal tubule cell(7), and End1/E6E7 (CRL-2615™, ATCC) upper cervical epithelial cells(8) were cultured in Keratinocyte Serum Free Medium (Invitrogen, Life Technologies Ltd.) with human recombinant EGF (5 ng ml-1) and bovine pituitary extract (0.05 mg ml−1) at 37°C in 5% CO2. […]
Cell viability was assessed by 3-(4,5-dimethylthiazol-2-yl)-2,5-diphenyl-2H-tetrazolium bromide (MTT) assay(9); 200 µl fresh cell media and 250 µg of MTT was added to cells. Plates were Incubated at 37 °C, 5% CO2 for 3 hr then 200 µl of DMSO was added to wells with 25 µl glycine buffer (0.1 M glycine, 0.1 M NaCl pH 10.5) and shaken at 1000 r.p.m. for 10 min. Absorbance was read at OD570 nm. Cell viability was calculated as (sample absorbance – cell free blank/media control absorbance) x100.

[4] = test system: N. gonorrhoeae FA1090ΔmtrE; conditions: microdilution in FB, ~5 × 10^4 CFU, 24 hr, 37°C, 5% CO2
Experimental: (§9) columns (ThermoFisher scientific). Activated mAb was added to 0.9 mg of Oct-TriA1 analogues (synthesised by ISCA Biochemicals, UK) and incubated at room temperature for 60 min. ADCs were dialysed using slide-A-Lyzer cassette (20K MWCO, ThermoFisher scientific) into PBS overnight at 4 °C […]
(§10) MALDI-TOF MS analysis for determination of intact mass mAbs or ADCs with a concentration of 1 mg/mL were acidified with 1% trifluoroacetic acid and mixed with Super DHB matrix, 1 μl was spotted onto an MTP Anchorchip 600/384. For every mAb, three sample spots were prepared from the same solution using three protocols advised by the manufacturer. MALDI-TOF measurements were performed on a Microflex LRF mass spectrometer, equipped with a 60Hz nitrogen laser at 337nm. Number of peptides conjugated was calculated using the MALDI-TOF molecular weights (MW) [MW = M+] of each ADC, the unconjugated antibody (mAb), and the molecular weights of Oct-TriA1 analogues using the following equation.
(§11) Number of peptides = MW ADC − MW mAb […]
as §1, §2, §3, §4, §5, §6, §7, §8

N. gonorrhoeae MS11 = conditions: microdilution in FB, ~5 × 10^4 CFU, 24 hr, 37°C, 5% CO2
Experimental: as §9, §10, §11, §1, §2, §3, §4, §5, §6, §7, §8

N. gonorrhoeae WHO M = conditions: microdilution in FB, ~5 × 10^4 CFU, 24 hr, 37°C, 5% CO2
Experimental: as §9, §10, §11, §1, §2, §3, §4, §5, §6, §7, §8

[5] = test system: N. gonorrhoeae FA1090ΔIgAP; conditions: microdilution in FB, ~5 × 10^4 CFU, 24 hr, 37°C, 5% CO2
Experimental: as §9, §10, §11, §1, §2, §3, §4, §5, §6, §7, §8

N. gonorrhoeae WHO K = conditions: microdilution in FB, ~5 × 10^4 CFU, 24 hr, 37°C, 5% CO2
Experimental: as §9, §10, §11, §1, §2, §3, §4, §5, §6, §7, §8

N. gonorrhoeae MS11ΔIgAP = conditions: microdilution in FB, ~5 × 10^4 CFU, 24 hr, 37°C, 5% CO2
Experimental: as §9, §10, §11, §1, §2, §3, §4, §5, §6, §7, §8

N. gonorrhoeae MS11ΔmtrE = conditions: microdilution in FB, ~5 × 10^4 CFU, 24 hr, 37°C, 5% CO2
Experimental: as §9, §10, §11, §1, §2, §3, §4, §5, §6, §7, §8

N. gonorrhoeae FA1090 [6] = conditions: microdilution in FB, ~5 × 10^4 CFU, 24 hr, 37°C, 5% CO2
Experimental: as §9, §10, §11, §1, §2, §3, §4, §5, §6, §7, §8

N. gonorrhoeae WHO O = conditions: microdilution in FB, ~5 × 10^4 CFU, 24 hr, 37°C, 5% CO2
Experimental: as §9, §10, §11, §1, §2, §3, §4, §5, §6, §7, §8

N. gonorrhoeae WHO G = conditions: microdilution in FB, ~5 × 10^4 CFU, 24 hr, 37°C, 5% CO2
Experimental: as §9, §10, §11, §1, §2, §3, §4, §5, §6, §7, §8

N. gonorrhoeae WHO F = conditions: microdilution in FB, ~5 × 10^4 CFU, 24 hr, 37°C, 5% CO2, lowest concentration preventing growth
Experimental: as §9, §10, §11, §1, §2, §3, §4, §5, §6, §7, §8

N. gonorrhoeae WHO P = conditions: microdilution in FB, ~5 × 10^4 CFU, 24 hr, 37°C, 5% CO2
Experimental: as §9, §10, §11, §1, §2, §3, §4, §5, §6, §7, §8

N. gonorrhoeae WHO N = conditions: microdilution in FB, ~5 × 10^4 CFU, 24 hr, 37°C, 5% CO2
Experimental: as §9, §10, §11, §1, §2, §3, §4, §5, §6, §7, §8

N. gonorrhoeae WHO L = conditions: microdilution in FB, ~5 × 10^4 CFU, 24 hr, 37°C, 5% CO2
Experimental: as §9, §10, §11, §1, §2, §3, §4, §5, §6, §7, §8

N. gonorrhoeae FA1090 [7] = assay: microbe, parasite or virus in culture; conditions: Neisseria gonorrhoeae
Experimental: 37°C, in 5% CO2 then 10 μl aliquots plated onto GCB agar. The MIC was defined as the lowest concentration of an antimicrobial that prevented bacterial growth.
Determination of N. gonorrhoeae resistance to Oct-TriA1
Single colonies of N. gonorrhoeae FA1090 were inoculated into 2 mL of FB media supplemented with 1% Vitox (Oxoid) and grown overnight. After 24 hours, 240 µl of a 1/ 5,000 dilution of FA1090 in 2x FB was added to a 48-well plate containing 2-fold dilutions of either Oct-TriA1-c (final concentration, 12.5 µg/ml to 0.2 µg/ml) or ciprofloxacin (final concentration, 16.4 to 0.001 µg/ml) in a total volume of 480
µl. Plates were incubated at 37 °C, 5% CO2 with shaking (180 rpm). After 24 hours, ODA600 of each well […]
to fresh media containing all concentrations of antimicrobials for a total of 35 days. […]

## CCCCCCCC(=O)N[C@@H](C(=O)N[C@H](CCN)C(=O)NCC(=O)N[C@H](CO)C(=O)N[C@H](Cc1c[nH]c2ccccc12)C(=O)N[C@@H](CO)C(=O)N[C@@H](CCN)C(=O)N[C@H](CCN)C(=O)N[C@@H](Cc1ccccc1)C(=O)N[C@@H](CCC(=O)O)C(=O)N[C@H](C(=O)N[C@@H](C(=O)N[C@@H](C)C(=O)O)[C@@H](C)CC)C(C)C)C(C)C [Oct-TriA1, reference compound]
HK-2 cells [1]
  LDH (EC50) 4 h: 23.19 µg/mL
HK-2 cells [1]; LDH release OD490, 24 h
  LDH (EC50) 24 h: 14.14 µg/mL
HK-2 cells [1]; LDH release OD490, 48 h
  LDH (EC50) 48 h: <0.1 µg/mL
[2]
  MIC: 0.2 µg/mL (≈ 0.132 µM)
[2]; listed as Oct-Tri1
  MIC: 0.78 µg/mL (≈ 0.513 µM)
Human erythrocytes
  Hemolysis (HC50): 39.4 µg/mL
HK-2 cells [3]
  MTT (EC50) 4 h: 21.15 µg/mL
HK-2 cells [3]; MTT reduction OD570, 24 h
  MTT (EC50) 24 h: 7.93 µg/mL
HK-2 cells [3]; MTT reduction OD570, 48 h
  MTT (EC50) 48 h: 8.07 µg/mL
[4]
  MIC: 0.1 µg/mL (≈ 0.0658 µM)
N. gonorrhoeae MS11
  MIC: 0.78 µg/mL (≈ 0.513 µM)
N. gonorrhoeae WHO M
  MIC: 0.39 µg/mL (≈ 0.256 µM)
[5]
  MIC: 0.1 µg/mL (≈ 0.0658 µM)
N. gonorrhoeae WHO K
  MIC: 0.78 µg/mL (≈ 0.513 µM)
N. gonorrhoeae MS11ΔIgAP
  MIC: 0.39 µg/mL (≈ 0.256 µM)
N. gonorrhoeae MS11ΔmtrE
  MIC: 0.2 µg/mL (≈ 0.132 µM)
N. gonorrhoeae FA1090 [6]
  MIC: 0.2 µg/mL (≈ 0.132 µM)
N. gonorrhoeae WHO O
  MIC: 0.39 µg/mL (≈ 0.256 µM)
N. gonorrhoeae WHO G
  MIC: 0.39 µg/mL (≈ 0.256 µM)
N. gonorrhoeae WHO F
  MIC: 0.2 µg/mL (≈ 0.132 µM)
N. gonorrhoeae WHO P
  MIC: 0.39 µg/mL (≈ 0.256 µM)
N. gonorrhoeae WHO N
  MIC: 0.39 µg/mL (≈ 0.256 µM)
N. gonorrhoeae WHO L
  MIC: 0.2 µg/mL (≈ 0.132 µM)

## O=C(O)c1cn(C2CC2)c2cc(N3CCNCC3)c(F)cc2c1=O [ciprofloxacin, reference compound]
N. gonorrhoeae FA1090 [7]; FA1090, 24 h, read-out: MIC at start of resistance evolution
  MIC: 0.002 µg/mL (≈ 0.00604 µM)
N. gonorrhoeae FA1090 [7]; FA1090, read-out: MIC after 35 d of resistance evolution
  MIC: 0.26 µg/mL (≈ 0.785 µM)

## CCCCCCCC(=O)N[C@@H](C(=O)N[C@H](CCN)C(=O)NCC(=O)N[C@H](CO)C(=O)N[C@H](Cc1c[nH]c2ccccc12)C(=O)N[C@@H](CO)C(=O)N[C@@H](CCN)C(=O)N[C@H](CCN)C(=O)N[C@@H](Cc1ccccc1)C(=O)N[C@@H](CCC(=O)O)C(=O)N[C@H](C(=O)N[C@@H](C(=O)N[C@@H](C)C(=O)NCCOCCOCC(=O)N[C@@H](CC(C)C)C(=O)N1CCC[C@H]1C(=O)N[C@@H](CCCNC(=N)N)C(=O)N1CCC[C@H]1C(=O)N1CCC[C@H]1C(=O)N[C@@H](C)C(=O)N1CCC[C@H]1C(=O)N[C@H](C(=O)N[C@@H](Cc1ccccc1)C(=O)N[C@@H](CO)C(=O)NCCOCCOCC(=O)N[C@@H](CS)C(N)=O)C(C)C)[C@@H](C)CC)C(C)C)C(C)C [cl-Oct-TriA1] (Octanoyl-[dV][dDab]G[dS][dW]S[Dab][dDab]FEV[d(aIle)]A[AEEA]LPRPPAPVFS[AEEA]C-NH2)
HK-2 cells [1]
  LDH (EC50) 4 h: >400 µg/mL
HK-2 cells [3]
  MTT (EC50) 4 h: 315.43 µg/mL
